ChEMBL document CHEMBL5385858, “Identification of novel Pyrrolo[2,3-d]Pyrimidine-based KRAS G12C inhibitors with anticancer effects” (Eur J Med Chem, 2023)
The source made the active and inactive calls. The calls are words filed in the database; no cut-off is given here.

Tests used:
[1] = system: GTPase KRas (Homo sapiens), P01116 [G12C]; test: Inhibition of KRAS G12C mutant RBD in human NCI-H358 cells incubated for 24 hrs in presence of GTP by pull-down assay; type: cell-based; settings: dose <= 1.0 µM
[2] = system: GTPase KRas (Homo sapiens), P01116 [G12C]; test: Inhibition of KRAS G12C mutant in human NCI-H358 cells assessed as decrease in ERK phosphorylation incubated for 2 to 72 hrs by Western blot analysis; type: cell-based; settings: time 2-72 hrs
[3] = system: GTPase KRas (Homo sapiens), P01116 [G12C]; test: Inhibition of KRAS G12C mutant in human NCI-H358 cells assessed as decrease in AKT phosphorylation upto 5 uM by Western blot analysis; type: cell-based; settings: time 2-72 hrs, TDE = time-dependent effect
A549 = test: Antiproliferative activity against human A549 cells harboring KRAS G12S mutant assessed as inhibition of cell proliferation incubated for 3 days by CCK8 assay; type: functional, cell-based; settings: A549, 72 h
NCI-H358 [4] = test: Induction of apoptosis in human NCI-H358 cells assessed as viable cells at 0.1 uM incubated for 24 hrs by Annexin V-FITC/PI staining based flow cytometry (reference value: 91.4 %); type: functional; settings: Homo sapiens, NCI-H358, read-out: Activity
NCI-H358 [5] = test: Induction of apoptosis in human NCI-H358 cells assessed as late apoptotic cells at 0.1 uM incubated for 24 hrs by Annexin V-FITC/PI staining based flow cytometry (reference value: 1.32 %); type: functional
NCI-H358 [6] = test: Induction of apoptosis in human NCI-H358 cells assessed as late apoptotic cells at 0.3 uM incubated for 24 hrs by Annexin V-FITC/PI staining based flow cytometry (reference value: 1.32 %); type: functional
NCI-H358 [7] = test: Induction of apoptosis in human NCI-H358 cells assessed as early apoptotic cells at 0.5 uM incubated for 24 hrs by Annexin V-FITC/PI staining based flow cytometry (reference value: 5.4 %); type: functional
NCI-H358 [8] = test: Induction of apoptosis in human NCI-H358 cells assessed as necrotic cells at 0.5 uM incubated for 24 hrs by Annexin V-FITC/PI staining based flow cytometry (reference value: 1.88 %); type: functional
NCI-H358 [9] = test: Induction of apoptosis in human NCI-H358 cells assessed as viable cells at 1 uM incubated for 24 hrs by Annexin V-FITC/PI staining based flow cytometry (reference value: 91.4 %); type: functional; settings: read-out: Activity
NCI-H358 [10] = test: Induction of apoptosis in human NCI-H358 cells assessed as late apoptotic cells at 1 uM incubated for 24 hrs by Annexin V-FITC/PI staining based flow cytometry (reference value: 1.32 %); type: functional
NCI-H358 [11] = test: Induction of apoptosis in human NCI-H358 cells assessed as necrotic cells at 1 uM incubated for 24 hrs by Annexin V-FITC/PI staining based flow cytometry (reference value: 1.88 %); type: functional
NCI-H358 [12] = test: Induction of apoptosis in human NCI-H358 cells assessed as increase in cleaved caspase-7 level upto 5 uM incubated for 24 hrs by Western blot analysis; type: functional, cell-based
NCI-H358 [13] = test: Antiproliferative activity against human NCI-H358 cells assessed as inhibition of cell proliferation at 0.03 uM incubated for 14 days by crystal violet staining based colony formation assay; type: functional; settings: time 14.0 day
NCI-H358 [14] = test: Inhibition of cell invasion in human NCI-H358 cells measured for 24 hrs by transwell assay; type: functional, cell-based
[15] = AUC (0 to t) in ICR mouse at 3 mg/kg, iv measured for 24 hrs by LC-MS/MS analysis; type: ADME, organism-based; parameters: dose 3 mg/kg, time 24 hrs, route iv; settings: in vivo
[16] = C0 in ICR mouse at 3 mg/kg, iv measured for 24 hrs by LC-MS/MS analysis; type: ADME, organism-based; settings: in vivo
[17] = Half life in ICR mouse at 3 mg/kg, iv measured for 24 hrs by LC-MS/MS analysis; type: ADME, organism-based; settings: in vivo
[18] = AUC (0 to t) in ICR mouse at 30 mg/kg, po measured for 24 hrs by LC-MS/MS analysis; type: ADME, organism-based; parameters: dose 30 mg/kg, time 24 hrs, route po; settings: in vivo
[19] = AUC (0 to infinity) in ICR mouse at 30 mg/kg, po measured for 24 hrs by LC-MS/MS analysis; type: ADME, organism-based; parameters: time 24 hrs, dose 30 mg/kg, route po; settings: in vivo
[20] = Half life in ICR mouse at 30 mg/kg, po measured for 24 hrs by LC-MS/MS analysis; type: ADME, organism-based; settings: in vivo
[21] = Oral bioavailability in ICR mouse at 30 mg/kg measured for 24 hrs by LC-MS/MS analysis; type: ADME, organism-based; settings: in vivo
[22] = Toxicity in BALB/c-nu/nu mouse xenografted with human NCI-H358 cells assessed as body weight loss at 10 to 30 mg/kg, po qd treated for 20 days; type: organism-based; settings: in vivo, 480 h, dose 10-30 mg/kg, time 20 day
[23] = Toxicity in BALB/c-nu/nu mouse xenografted with human NCI-H358 cells assessed as morphological damage in heart at 10 to 30 mg/kg, po qd treated for 20 days; type: organism-based; settings: in vivo, 480 h, dose 10-30 mg/kg, time 20 day
[24] = Toxicity in BALB/c-nu/nu mouse xenografted with human NCI-H358 cells assessed as morphological damage in spleen at 10 to 30 mg/kg, po qd treated for 20 days; type: organism-based; settings: in vivo, 480 h, dose 10-30 mg/kg, time 20 day
NCI-H358 [25] = test: In vivo inhibition of KRAS G12C mutant in human NCI-H358 cells xenografted in BALB/c-nu/nu mouse assessed as decrease in AKT phosphorylation at 10 to 30 mg/kg, po qd treated for 20 days by Western blot analysis; type: functional, organism-based; settings: dose 10-30 mg/kg, time 20.0 day
[26] = Toxicity in BALB/c-nu/nu mouse xenografted with human NCI-H358 cells assessed as histological change in heart at 10 to 30 mg/kg, po qd treated for 20 days by H and E staining based analysis; type: organism-based; settings: in vivo, 480 h, dose 10-30 mg/kg, time 20 day
[27] = Toxicity in BALB/c-nu/nu mouse xenografted with human NCI-H358 cells assessed as histological change in liver at 10 to 30 mg/kg, po qd treated for 20 days by H and E staining based analysis; type: organism-based; settings: in vivo, 480 h, dose 10-30 mg/kg, time 20 day
[28] = Toxicity in BALB/c-nu/nu mouse xenografted with human NCI-H358 cells assessed as histological change in spleen at 10 to 30 mg/kg, po qd treated for 20 days by H and E staining based analysis; type: organism-based; settings: in vivo, 480 h, dose 10-30 mg/kg, time 20 day
[29] = Toxicity in BALB/c-nu/nu mouse xenografted with human NCI-H358 cells assessed as histological change in kidney at 10 to 30 mg/kg, po qd treated for 20 days by H and E staining based analysis; type: organism-based; settings: in vivo, 480 h, dose 10-30 mg/kg, time 20 day

Sequence of GTPase KRas (Homo sapiens), P01116 [G12C] (P01116 whole entry G12C): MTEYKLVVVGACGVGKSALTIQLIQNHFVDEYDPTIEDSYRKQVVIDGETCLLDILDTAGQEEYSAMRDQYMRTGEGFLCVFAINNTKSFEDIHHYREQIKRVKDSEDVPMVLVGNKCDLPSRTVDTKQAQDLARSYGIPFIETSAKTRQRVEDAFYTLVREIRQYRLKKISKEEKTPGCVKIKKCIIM

## C=CC(=O)N1CCN(c2nc(OC[C@@]34CCCN3C[C@H](F)C4)nc3c2cc(-c2cccc4cccc(C)c24)n3C)C[C@@H]1CC#N
[1]
  inhibition: Dose-Dependent Effect
[2]
  inhibition: Dose-Dependent Effect
[3]
  inhibition: Tde
A549
  IC50: 29.9 µM
NCI-H358 [4]
  viability at 0.1 µM: 84.6%
NCI-H358 [5]
  Activity: 3.71%
NCI-H358 [6]
  Activity: 3.93%
NCI-H358 [7]
  Activity: 14%
NCI-H358 [8]
  Activity: 0.8%
NCI-H358 [9]
  viability at 1 µM: 71.2%
NCI-H358 [10]
  Activity: 5.34%
NCI-H358 [11]
  Activity: 1.03%
NCI-H358 [12]
  Activity: Active
NCI-H358 [13]
  inhibition: Active
NCI-H358 [14]
  Activity: Dose-Dependent Effect
[15]
  AUC(0-t) at 24 h: 801 ng·h/mL
[16]
  C0 at 24 h: 1960 ng/mL
[17]
  half-life: 0.93 h
[18]
  AUC(0-t) at 24 h: 600 ng·h/mL
[19]
  AUC(0-inf): 835 ng·h/mL
[20]
  half-life: 4.79 h
[21]
  bioavailability: 10.4%
[22]
  Activity: Non-Toxic
[23]
  Activity: Non-Toxic
[24]
  Activity: Non-Toxic
NCI-H358 [25]
  inhibition: Active
[26]
  Activity: Non-Toxic
[27]
  Activity: Non-Toxic
[28]
  Activity: Non-Toxic
[29]
  Activity: Non-Toxic
